In data set [1] the test system is T1, PDE IV.
T1 construct: PDE IV IC50; other: Type IV PDE isolated from bovine tracheal smooth muscle; rolipram run in the
Nature of the data set: Type IV PDE inhibition, hydrolysis of [3H]-cyclic AMP. The data set is classed as biochemical, bovine. From the text: The PDE IV inhibitory compounds of the present invention may be examined for their PDE IV inhibitory effects via the techniques set forth in the following examples, wherein the ability of the compounds to inhibit PDE IV isolated from bovine tracheal smooth muscle is set forth.
The Type IV PDE is isolated from bovine tracheal smooth muscle using a procedure similar to that previously described by Silver, P. J. et al., Eur. J. Pharmacol. 150:85,1988.(1). Briefly, smooth muscle from bovine trachea is minced and homogenized using a polytron in 10 volumes of an extraction buffer containing 10 mM Tris-acetate (pH 7.5), 2 mM magnesium chloride, 1 mM dithiothreitol and 2,000 units/ml of aprotinin. This and all subsequent procedures are performed at 0-4° C. The homogenate is sonicated and then centrifuged at 48,000×g for 30 minutes. The resulting supernatant is applied to a DEAE Trisacryl M column previously equilibrated with sodium acetate and dithiothreitol. After applications of the sample, the column is washed with sodium acetate/dithiothreitol, after whlich the different forms of PDE are eluted from the column using a linear Tris-HCl/NaCl gradient. Fractions containing Type IV PDE are collected, dialyzed and concentrated to 14% of the original volume. The concentrated fractions are diluted to 50% with ethylene glycol and stored at −20° C.
Enzyme activity is assessed by measuring the hydrolysis of [^3H]-cyclic AMP, as described by Thompson, W. J. et al., Adv. Cyclic Nucleotide Res. 10:69, 1979. The cyclic AMP concentration used in this assay is 0.2 μM, which approximates the Km value. Protein concentration is adjusted to ensure that no more than 15% of the available substrate is hydrolyzed during the incubation period.
(§1) All test compounds are dissolved in dimethyl sulfoxide (final concentration of 2.5%). This concentration of dimethyl sulfoxide inhibits enzyme activity by approximately 10%.

For data set [2], the target named is T2, PDE III (Homo sapiens, UniProt Q14432).
T2 construct: Fractions containing PDE III activity are pooled and dialyzed overnight; from tissue; host or cells: human platelets
Nature of the data set: Type III PDE inhibition, hydrolysis of [3H]-cyclic AMP. The data set is classed as biochemical. The settings on record: Type III PDE isolated from human platelets; 0.2 μM cyclic AMP. On the procedure:
The Type III PDE is isolated from human platelets using a procedure similar to that previously described by Washer, R. E. et al., Biochem. Pharmacol., 35:787, 1986. Briefly, 1-2 units of platelets are suspended in an equal volume of buffer (20 mM Tris-HCl, pH 7.5, containing 2 mM magnesium acetate, 1 mM dithiothreitol, and 5 mM Na2EDTA). The proteinase inhibitor phenylmethyl-sulfonyl fluoride (PMSF) is also included in this buffer at a final concentration of 200 μM. The suspension is homogenized using a polytron and the homogenate centrifuged at 100,000×g for 60 minutes. This and all subsequent procedures are performed at 0-4° C. The supernatant is then filtered through four layers of gauze and applied to a DEAE-Trisacryl M column, previously equilibrated with buffer B (20 mM Tris-HCl, pH 7.5, containing 1 mM magnesium acetate, 1 mM dithiothreitol and 200 μM PMSF). After application of the sample, the column is washed with several bed volumes of buffer B, after which the different forms of PDE are eluted from the column using two successive linear NaCl gradients (0.05-0.15 M, 300 ml total; 0.15-0.40 M, 200 ml total). Five ml fractions are collected and assayed for cyclic AMP and cyclic GMP PDE activity. Fractions containing PDE III activity are pooled and dialyzed overnight against 4 L of buffer B. The dialyzed PDE III is then concentrated to 10% of the original volume, diluted to 50% with ethylene glycol monoethyl ether and stored at −20° C. PDE III can typically be retained for up to four weeks with little or no loss of activity.
Enzyme activity is assessed by measuring the hydrolysis of [^3H]-cyclic AMP, as described by Thompson, W. J. et al., Adv. Cyclic Nucleotide Res. 10:69, 1979. The cyclic AMP concentration used in this assay is 0.2 μM, which approximates to the Km value. Protein concentration is adjusted to ensure that no more than 15% of the available substrate is hydrolyzed during the incubation period.
as §1

Data set [3] has as its system PDE IV. The settings on record: cited from earlier work.
Where [4] appears, read: Type IV PDE isolated from bovine tracheal smooth muscle, 0.2 μM cyclic AMP, read-out: PDE IV IC50.

Molecules are shown by their SMILES. Where two headings read alike, the source gives them in different places.

T2 sequence (Q14432 whole entry): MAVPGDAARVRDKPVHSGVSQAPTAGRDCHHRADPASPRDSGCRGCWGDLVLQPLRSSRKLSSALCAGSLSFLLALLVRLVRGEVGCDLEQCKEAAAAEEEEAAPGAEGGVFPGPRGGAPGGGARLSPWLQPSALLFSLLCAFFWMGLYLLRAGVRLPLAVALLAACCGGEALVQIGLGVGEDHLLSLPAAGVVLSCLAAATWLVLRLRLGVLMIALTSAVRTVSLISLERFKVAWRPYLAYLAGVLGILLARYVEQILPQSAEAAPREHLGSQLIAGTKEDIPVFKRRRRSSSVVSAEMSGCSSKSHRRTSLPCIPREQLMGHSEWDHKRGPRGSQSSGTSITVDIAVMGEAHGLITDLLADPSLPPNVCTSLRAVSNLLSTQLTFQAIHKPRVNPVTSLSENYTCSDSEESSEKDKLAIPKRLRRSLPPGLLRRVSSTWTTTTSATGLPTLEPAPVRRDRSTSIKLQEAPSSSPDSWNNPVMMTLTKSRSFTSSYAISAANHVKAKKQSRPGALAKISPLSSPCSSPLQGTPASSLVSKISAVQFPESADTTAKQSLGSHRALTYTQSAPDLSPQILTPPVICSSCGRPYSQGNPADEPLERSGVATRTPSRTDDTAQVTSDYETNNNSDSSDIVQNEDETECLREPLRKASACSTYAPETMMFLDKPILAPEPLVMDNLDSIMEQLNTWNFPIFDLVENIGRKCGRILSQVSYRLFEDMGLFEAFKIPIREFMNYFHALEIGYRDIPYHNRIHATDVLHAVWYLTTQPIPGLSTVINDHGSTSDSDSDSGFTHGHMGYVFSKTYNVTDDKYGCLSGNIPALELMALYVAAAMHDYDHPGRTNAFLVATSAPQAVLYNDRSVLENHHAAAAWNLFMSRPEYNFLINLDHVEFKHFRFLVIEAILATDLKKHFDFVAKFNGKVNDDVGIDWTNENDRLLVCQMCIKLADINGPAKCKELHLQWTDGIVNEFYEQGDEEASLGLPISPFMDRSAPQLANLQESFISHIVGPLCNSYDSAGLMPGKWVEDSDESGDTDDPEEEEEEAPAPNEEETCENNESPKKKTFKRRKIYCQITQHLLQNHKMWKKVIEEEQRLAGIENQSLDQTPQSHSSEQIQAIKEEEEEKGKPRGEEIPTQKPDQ

With `COc1ccc(Cc2nc3cc(Cl)cc(CC=O)c3o2)cc1OC1CCCC1` [Example 25, 2-(3-Cyclopentyloxy-4-methoxybenzyl)-5-chlorobenzoxazole-7-ethanal], the melting point (in general, the temperature of the solid-liquid transition) is 66 to 68 °C. The IC50 in data set [1] (setting [4]) is 0.65 µM. Moreover, in data set [2], the IC50 came out at 118 µM.

Turning to `COc1ccc(Cc2nc3cc(Cl)cc(CC=NO)c3o2)cc1OC1CCCC1` [Example 26, 2-(3-Cyclopentyloxy-4-methoxybenzyl)-5-chlorobenzoxazole-7-ethanal Oxime], the melting point lay in the range of 149 to 151 °C. For the same compound, the IC50 in data set [1] (setting [4]) came out at 0.37 µM. The same compound came in with an IC50 in data set [2] of 11.4 µM.

For the compound `COc1ccc(C2CNC(=O)C2)cc1OC1CCCC1` (stereo not drawn) [Rolipram, reference compound], the IC50 was 2.8 µM in data set [1] (read-out: concentration which yields 50% inhibition of PDE IV (IC50), value of the description, rolipram run in the same assay) and 3.5 µM in data set [3] (historically considered value, read-out: PDE IV IC50, historical value).

Regarding `Cn1c(=O)c2[nH]cnc2n(C)c1=O` [theophylline], the IC50 in data set [3] (read-out: concentration giving 50% inhibition of PDE IV, stated in the description without a test) was about 350 µM.

The values above are taken from patent US6372770B1, “Benzoxazoles” (Euro-Celtique, S.A., priority 1994, dated 2002).
